Reference: patent US20240252496A1, “SELECTIVE HYPOTHALAMUS PERMEABLE HDAC6 INHIBITORS FORTREATMENT OF LEPTIN-RESISTANT OBESITY” (The Children’s Medical Center Corporation, priority 2022, published 2024)
Entries after “also recorded” stand apart in the source; their conditions may differ.

Columns and labels:
DIO mice [1] = assay: Acute leptin co-treatment in DIO mice (body weight, food intake 15 h); format: in vivo; conditions: for body weight 15 h after leptin in inhibitor-pretreated mice / food intake 15 h after leptin in inhibitor-pretreated mice: leptin 1 mg/kg i.p., ACY775 10, ACY738 50, ricolinostat 25 mg/kg/day i.p.; for body weight, inhibitor alone: 3 days pretreatment i.p., ACY775 10, ricolinostat 25 mg/kg; for food intake, inhibitor alone: ACY775 10, ricolinostat 25 mg/kg i.p.
Experimental: DIO mice were pretreated with ACY775 (10 mg/kg/day, i.p.) or vehicle for 3 days, which was followed by co-treatment with ACY775 (or vehicle) and leptin (1 mg/kg, i.p.) (or saline) (n=9 for each group), % change in body weight 15 h after leptin treatment, food intake (g) during the 15 h period after leptin treatment. The results in were reproduced in two independent experiments.
Diet induced obese (DIO) mice were pretreated with ACY775 (10 mg/kg/day, i.p.) or vehicle for 3 days, which was followed by co-treatment with ACY775 (or vehicle) and leptin (1 mg/kg, i.p.) (or saline) (n=9 for each group). Mice were evaluated for % change in body weight 15 h after leptin treatment, and food intake (g) during the 15 h period after leptin treatment.
DIO mice were pretreated with ricolinostat (25 mg/kg/day, i.p.) or vehicle for 3 days, which was followed by co-treatment with ricolinostat (or vehicle) and leptin (1 mg/kg, i.p.) (or saline) (n=32 for each group). Change in body weight 15 h after leptin treatment, and food intake (g) during the 15 h period after leptin treatment were determined. The results were reproduced in two independent experiments.

HDAC6 = assay: Ac-tubulin immunoblotting in HEK293 cells; format: cell-based
DIO mice [2] = assay: Chronic treatment of DIO mice (body weight, food intake, leptin, DEXA); format: in vivo; conditions: for body weight after treatment / decrease in body weight: 3 weeks; for body weight after treatment / decrease in body weight / body weight before treatment / daily food intake under treatment: ACY775 10, ACY738 50 mg/kg/day i.p.; for fat mass (DEXA) / fat percentage (DEXA) / lean mass (DEXA) / circulating/serum leptin levels: after 3 weeks; for circulating/serum leptin levels: ACY775 10, ACY738 50, ricolinostat 50 mg/kg i.p.; for food intake and total body fat mass: high fat diet induced mice, summary
Experimental: DIO mice were treated with ACY775 (10 mg/kg/day, i.p.) for 3 weeks. Daily body weight (g) of DIO mice treated with vehicle (n=17) or ACY775 (n=17) during 3 weeks of treatment was determined. Daily food intake (g) during 3 weeks of vehicle or ACY775 treatment was assessed. 24 hours' food intake per mouse during the first week of vehicle or ACY775 treatment was determined. Serum leptin (ng/ml) levels after 3 weeks of vehicle (n=24) or ACY775 (n=24) treatment was assessed. Lean mass (g), fat mass (g) and fat percentage (%) after 3 weeks of vehicle (n=17) or ACY775 (n=17) treatment measured by Dual-energy X-ray absorptiometry (DEXA) scan. DEXA scans were performed in two different cohorts. Glucose tolerance test (GTT) after 1 week of vehicle (n=33) or ACY775 (n=26) treated DIO mice was assessed. Area of curve (AOC) analysis for GTT was performed. Blood glucose (mg/dl) levels after 1 week of vehicle (n=17) or ACY775 (n=16) were assessed in treated DIO mice. Insulin tolerance test (ITT) was performed after 2 weeks of vehicle (n=31) or ACY775 (n=21) treatment of DIO mice. Serum insulin (ng/ml) levels were measured after 3 weeks of vehicle (n=22) or ACY775 (n=21) in treated DIO mice. A homeostatic model assessment of insulin resistance (HOMA-IR) was analyzed after 3 weeks of vehicle (n=14) or ACY775 (n=13) treated DIO mice.
Food intake was analyzed hourly until 3:00 am. […] DEXA scans were performed in two different cohorts.
DIO mice then were treated with ricolinostat (50 mg/kg, i.p.) for 3 weeks. Daily body weight (g), daily food intake (g), serum leptin (ng/ml) levels after 3 weeks of vehicle (n=8) or ricolinostat (n=8) treatment, lean mass (g); fat mass and fat percentage (%) after 3 weeks of vehicle (n=16) or ricolinostat (n=17) treatment measured by DEXA scan were determined.
Studies were conducted as described above with reference to ACY775.
DIO mice then were treated with bavarostat (10 mg/kg, i.p.) for 3 weeks and daily body weight (g) of DIO mice treated with Veh (n=9) or bavarostat (n=9) measured during the three weeks of treatment period. Daily food intake (g) during 3 weeks of Veh or bavarostat treatment was also measured.
ACY1083 was administered to DIO mice as described in Example 3.

[3] = test system: STAT3^Tyr705 phosphorylation; assay: Leptin-stimulated hypothalamic STAT3 phosphorylation in DIO mice; format: in vivo; conditions: 45 min after leptin 1 mg/kg i.p., ACY775 10, ACY738 50, ricolinostat 50 mg/kg/day i.p.
Experimental: DIO mice were pretreated with ACY775 (10 mg/kg/day, i.p.) or vehicle for 3 days, which was followed by a last injection of ACY775 (or vehicle) in the morning of fourth day. 6 hours later mice were injected with saline or leptin (1 mg/kg, i.p.) and hypothalamus were extracted after 45 minutes following the leptin injection. Representative immunoblots for STAT3^Tyr705 phosphorylation and total STAT3 from the hypothalamus. Quantification of the ratio of p-STAT3^Tyr705 to total-STAT3 signal in the immunoblots. The results were reproduced in three independent experiments. The results were analyzed hourly.
DIO mice were pretreated with ACY775 (10 mg/kg/day, i.p.) or vehicle for 3 days, which was followed by a last injection of ACY775 (or vehicle) in the morning of fourth day. 6 hours later mice were injected with saline or leptin (1 mg/kg, i.p.) and the hypothalamus were extracted after 45 minutes following the leptin injection.
6 hours later mice were injected with saline or leptin (1 mg/kg, i.p.) and hypothalamus were extracted after 45 minutes following the leptin injection. Immunoblots for STAT3^Tyr705 phosphorylation and total STAT3 from the hypothalamus were made to quantify the ratio of p-STAT3^Tyr705 to total-STAT3 signal in the immunoblots. The results were reproduced in two independent experiments.
DIO mice were pretreated with ricolinostat (50 mg/kg/day, i.p.) or vehicle 3 days, which was followed by a last injection of ricolinostat (or vehicle) in the morning of fourth day. 6 hours later mice were injected with saline or leptin (1 mg/kg, i.p.) and the hypothalamus were extracted after 45 minutes following the leptin injection. Immunoblots were performed for STAT3^Tyr705 phosphorylation and total STAT3 from the hypothalamus. The ratio of p-STAT3^Tyr705 to total STAT3 signal in the immunoblots was quantified.

SMILES	body weight 15 h after leptin in inhibitor-pretreated mice (DIO mice [1])	food intake 15 h after leptin in inhibitor-pretreated mice (DIO mice [1])	tubulin acetylation (HDAC6 inhibitor activity) in cells (HDAC6)	average food intake during the first week vs control (DIO mice [2]; DIO mice)	daily food intake before treatment (DIO mice [2]; DIO mice)	body weight after treatment (DIO mice [2]; DIO mice)	decrease in body weight (DIO mice [2]; DIO mice)	fat mass (DEXA) (DIO mice [2]; DIO mice)	fat percentage (DEXA) (DIO mice [2]; DIO mice)	lean mass (DEXA) (DIO mice [2]; DIO mice)	circulating/serum leptin levels (DIO mice [2]; DIO mice)	body weight before treatment (DIO mice [2]; DIO mice)	daily food intake under treatment (DIO mice [2]; DIO mice)	food intake and total body fat mass (DIO mice [2])	leptin-stimulated hypothalamic p-STAT3^Tyr705 in inhibitor-pretreated mice [3]	body weight, inhibitor alone (DIO mice [1])	food intake, inhibitor alone (DIO mice [1])	body weight effect of chronic treatment (DIO mice [2]; DIO mice, 3 weeks i.p., bavarostat 10, citarinostat 25, ricolinostat 50 mg/kg)	food intake during chronic treatment (DIO mice [2]; DIO mice, 3 weeks i.p., bavarostat 10, ricolinostat 50 mg/kg)
O=C(NO)c1cnc(NC2(c3ccccc3)CC2)nc1 [ACY738]	significantly augmented the acute leptin-induced reduction in body weight and food intake	significantly augmented the acute leptin-induced reduction in body weight and food intake	inhibits the HDAC6 activity	severely reduced	2.35 ± 0.10 g	37.74 ± 1 g	20.21%±1.32%	significantly decreased	significantly decreased	no change in the lean body mass	significantly decreased	46.43 ± 0.74 g	1.32 ± 0.05 g	significant reduction of food intake and total body fat mass	substantially increased				
O=C(CCCCCCNC(=O)c1cnc(N(c2ccccc2)c2ccccc2)nc1)NO [Ricolinostat]	did not reduce the body weight	no effect on the food intake	confirmation of Ricolinstat's HDAC6 inhibitory activity												did not significantly increase STAT3^Tyr705 phosphorylation	did not decrease the bodyweight	no effect on the food intake	minimal decrease in bodyweight for the first couple of days without creating any meaningful or significant decreases; also recorded: does not reduce body weight	reduced transitionally during the first 2-3 days of treatment but then rebounded
O=C(NO)c1cnc(NC2(c3cccc(F)c3)CCCCC2)nc1 [ACY775, 2-[[1-(3-fluorophenyl)cyclohexyl]amino]-N-hydroxy-5-pyrimidinecarboxamide]	further reduction in bodyweight	further augmented the negative effect of leptin on food intake	increases tubulin acetylation	highly significant reduction	2.54 ± 0.10 g	33.53 ± 1.19 g	29.58%±1.79%	significantly lower	significantly lower	did not alter the lean mass	significantly downregulated	48.25 ± 0.87 g	0.85 ± 0.06 g	significant reduction of food intake and total body fat mass	increased significantly	significantly decreased the bodyweight	reduced the food intake		
